One test deals with NK cells. As to the kind of experiment: Flow cytometry of GZMB-positive NK cells after pomalidomide. The test is classed as cell-based, human. In general terms: In flow cytometry, cells or beads pass a laser one at a time.
The test system of a further test is cultured PINK cells. The test can be described thus: qRT-PCR gene expression in lenalidomide- or pomalidomide-treated cultured PINK cells. (In general: Quantitative PCR measures a nucleic acid by following its amplification.)

Experimental findings from patent US20110280849A1, “TUMOR SUPPRESSION USING HUMAN PLACENTA-DERIVED INTERMEDIATE NATURAL KILLER CELLS AND IMMUNOMODULATORY COMPOUNDS” (Anthrogenesis Corporation, priority 2010, published 2011) are described below.

Excerpt for cultured PINK cells: Quantitative real-time (qRT-PCR) analysis. Isolated RNA can then be used for cDNA synthesis using TAQMAN® Reverse Transcription Reagents (Applied Biosystems, Cat #N8080234) followed by real-time PCR analysis by the 7900HT Fast Real-Time PCR System using Human Immune Array (Applied Biosystems, Cat #4370573) and Human MicroRNA Array (Applied Biosystems, Cat #4384792).
The paired t-test is used to determine if fold changes are equal in lenalidomide-treated and -untreated samples. […] The paired t-test is used to determine if fold changes are equal in treated and untreated samples.

With `Nc1cccc2c1C(=O)N(C1CCC(=O)NC1=O)C2=O` (racemic) [pomalidomide, 4-amino-2-[(3RS)-2,6-dioxopiperidin-3-yl)-1H-isoindole-1,3(2H)-dione], the “increase in percentage of GZMB-positive NK cells” value in the test with NK cells was found to be 25%. Also, the “increase in granzyme B (GZMB) gene expression” value in the test on cultured PINK cells is 60%±1.7%.
